This note sets out measurements from ChEMBL document CHEMBL6134887, “Linker and Head-Group Exploration of Anti-MRSA Triaromatic Pleuromutilins” (J Med Chem, 2025).

One may read the half-life as the time in which the quantity being followed falls by half.

For data set [1], the system named is Staphylococcus aureus. The data set can be described thus: Antibacterial activity against methicillin resistant Staphylococcus aureus USA300 FPR3757 assessed as inhibition of bacterial growth incubated for 20 to 24 hrs by microbroth serial dilution method. It is filed as functional. The following applies: time 20-24 hrs, read-out: MIC100. For orientation: Dilution methods test growth across graded concentrations, often in twofold steps.

Data set [2] deals with Staphylococcus aureus. The data set can be described thus: Antibacterial activity against methicillin susceptible Staphylococcus aureus ATCC 25923 assessed as inhibition of bacterial growth incubated for 20 to 24 hrs by microbroth serial dilution method. It is filed as functional. The conditions noted are these: time 20-24 hrs, read-out: MIC100.
Data set [3] relates to Staphylococcus aureus. The data set can be described thus: Antibacterial activity against methicillin susceptible Staphylococcus aureus ATCC 29213 assessed as inhibition of bacterial growth incubated for 20 to 24 hrs by microbroth serial dilution method. It is filed as functional. The following applies: time 20-24 hrs, read-out: MIC100.
Data set [4] concerns Staphylococcus aureus. The data set can be described thus: Antibacterial activity against Staphylococcus aureus ATCC 29213 infected in skin infection female BALB/cJRj mouse model assessed as reduction in bacterial load in wound at 2 % administered twice daily at 6 hrs interval as cream formulation and measured on day 1. It is filed as functional. The following applies: route top, time 1 day.

Data set [5] deals with Staphylococcus aureus. The data set can be described thus: Antibacterial activity against Staphylococcus aureus ATCC 29213 infected in skin infection female BALB/cJRj mouse model assessed as reduction in bacterial load in wound at 2 % administered twice daily at 6 hrs interval as cream formulation and measured on day 4 (reference value: 5.3 x 10^3 CFU/ml). In kind it is functional. The conditions noted are these: route top, time 4 day.

For data set [6], the system named is Staphylococcus aureus. The data set can be described thus: Antibacterial activity against Staphylococcus aureus ATCC 29213 infected in skin infection female BALB/cJRj mouse model assessed as reduction in bacterial load in wound at 2 % administered twice daily at 6 hrs interval as cream formulation and measured on day 5. The following applies: route top. It is filed as functional.

The subject of data set [7] is Enterococcus faecium. The data set can be described thus: Antibacterial activity against vancomycin, ampicillin and ciprofloxacin resistant Enterococcus faecium clinical isolate 1 assessed as inhibition of bacterial growth incubated for 20 to 24 hrs by microbroth serial dilution method. It is filed as functional. The conditions noted are these: time 20-24 hrs, read-out: MIC100.

For data set [8], the system named is Enterococcus faecium. The data set can be described thus: Antibacterial activity against vancomycin, ampicillin and ciprofloxacin resistant Enterococcus faecium clinical isolate 5 assessed as inhibition of bacterial growth incubated for 20 to 24 hrs by microbroth serial dilution method. In kind it is functional. The conditions noted are these: time 20-24 hrs, read-out: MIC100.

Data set [9] concerns Staphylococcus aureus. The data set can be described thus: Antibacterial activity against methicillin resistant Staphylococcus aureus clinical isolate 55508 assessed as inhibition of bacterial growth incubated for 20 to 24 hrs by microbroth serial dilution method. It is filed as functional. The following applies: time 20-24 hrs, read-out: MIC100.
In data set [10] the test system is Staphylococcus aureus. The data set can be described thus: Antibacterial activity against methicillin resistant Staphylococcus aureus clinical isolate 52518 assessed as inhibition of bacterial growth incubated for 20 to 24 hrs by microbroth serial dilution method. In kind it is functional. The conditions noted are these: time 20-24 hrs, read-out: MIC100.
Data set [11] deals with Staphylococcus aureus. The data set can be described thus: Antibacterial activity against mupirocin resistant Staphylococcus aureus 4828 assessed as inhibition of bacterial growth incubated for 20 to 24 hrs by microbroth serial dilution method. In kind it is functional. The conditions noted are these: time 20-24 hrs, read-out: MIC100.
Data set [12] relates to Staphylococcus aureus. The data set can be described thus: Antibacterial activity against methicillin resistant Staphylococcus aureus clinical isolate 933010 assessed as inhibition of bacterial growth incubated for 20 to 24 hrs by microbroth serial dilution method. In kind it is functional. The following applies: time 20-24 hrs, read-out: MIC100.
A short description of data set [13]: Metabolic stability in mouse liver microsomes assessed as half-life at 1 uM measured up to 60 mins by LC-MS/MS analysis. In kind it is ADME, Microsome. (In general: Liver microsomes are vesicles of endoplasmic reticulum, rich in cytochrome P450 enzymes.)
Data set [14] can be described thus: Metabolic stability in mouse liver assessed as intrinsic clearance at 1 uM measured up to 60 mins by LC-MS/MS analysis. It is filed as ADME, tissue-based. The conditions noted are these: read-out: CLH.
Data set [15] in a line: Metabolic stability in human liver microsomes assessed as half-life at 1 uM measured up to 30 mins by LC-MS/MS analysis. It is filed as ADME, Microsome.
A short description of data set [16]: Metabolic stability in human liver assessed as intrinsic clearance at 1 uM measured up to 30 mins by LC-MS/MS analysis. It is filed as ADME, tissue-based. The conditions noted are these: read-out: CLH.
In data set [17] the test system is Caco-2. The data set can be described thus: Cytotoxicity against human Caco-2 cells assessed as reduction in cell viability at 1 to 10 uM measured after 1 to 8 days by Celltiter-Glo reagent based assay. It is filed as toxicity. The conditions noted are these: caco-2, 10 µM, dose lower 1 µM, time lower 1 day, dose upper 10 µM, time upper 8 day. Background: ATP-based viability assays read luminescence as a measure of living cells.

Data set [18] relates to DU-145. The data set can be described thus: Cytotoxicity against human DU-145 cells assessed as reduction in cell viability at 1 to 10 uM measured after 3 hrs by Celltiter-Glo reagent based assay. The conditions noted are these: du-145, 3 h, dose 1-10 µM. It is filed as toxicity.
Data set [19] concerns MDCK-MDR1. The data set can be described thus: Cytotoxicity against MDCKII-MDR1 cells assessed as reduction in cell viability at 1 to 10 uM measured after 3 hrs by Celltiter-Glo reagent based assay. In kind it is toxicity, Canis lupus familiaris. The following applies: dog, mdck-mdr1, 3 h, dose 1-10 µM.
Data set [20] in a line: Toxicity in female BALB/cJRj mouse model of skin infection infected with Staphylococcus aureus ATCC 29213 assessed as skin toxicity at 2 % administered twice daily at 6 hrs interval as cream formulation and measured on day 4. The conditions noted are these: in vivo, topical_or_ocular, 96 h, route top, time 4 day.
A short description of data set [21]: Toxicity in female BALB/cJRj mouse model of skin infection infected with Staphylococcus aureus ATCC 29213 assessed as skin irritation at 2 % administered twice daily at 6 hrs interval as cream formulation and measured on day 4. The following applies: in vivo, topical_or_ocular, 96 h, route top, time 4 day.

≈ marks a conversion by molar mass, not a printed value. Calls of active or inactive are those of the source. No cut-off for these calls is given here.

`CC(=O)O[C@H]1C[C@@]2(C)[C@@H](C[C@@H](O)[C@H]3[C@@]4(C)CC[C@@H](O)[C@@H](C)[C@@H]4CC[C@@]32C)/C1=C(\CCC=C(C)C)C(=O)O` [FUSIDIC ACID]: the MIC was 0.25 µg/mL (≈ 0.484 µM) in data set [1], 0.12 µg/mL (≈ 0.232 µM) in data set [2] and 0.015 µg/mL (≈ 0.029 µM) in [3]. Further, the results for the Activity in [4] and in data set [5] were 4.8 10^4CFU/ml and 2.5 log10CFU/ml, respectively. Further, in data set [6] (time 5.0 day), the outcome was Active.
On to `C=C[C@]1(C)C[C@@H](OC(=O)Cn2cc(-c3ccc(Cn4ccc5c(N)ncnc54)nc3)nn2)[C@]2(C)[C@H](C)CC[C@]3(CCC(=O)[C@H]32)[C@@H](C)[C@@H]1O`, for which the MIC was 0.015 µg/mL (≈ 0.023 µM) in [1]; 0.015 µg/mL (≈ 0.023 µM) in data set [7]; 0.03 µg/mL (≈ 0.046 µM) in data set [8]; 0.06 µg/mL (≈ 0.0919 µM) in [2]; 0.015 µg/mL (≈ 0.023 µM) in [3]; below 0.015 µg/mL in data set [9]. The MIC in [10] was below 0.015 µg/mL; in [11], below 0.015 µg/mL; in [12], 0.03 µg/mL (≈ 0.046 µM). The figures for the half-life at 1 µM in data set [13] and in data set [15] were 0.58 min and 1.9 min, respectively. The CLint scaled at 1 µM in data set [14] turned out to be 566 L/h/kg; in [16], 199 L/h/kg. The Activity result is “Non-toxic” in data set [17]; “Non-toxic” in data set [18]; “Non-toxic” in data set [19]; 5.4 10^5CFU/ml in [4]; 2.5 log10CFU/ml in data set [5]; 1.5 10^7CFU/ml in data set [6] (time 5 day). In addition, the Activity entry in [20] and in [21] was “Non-toxic” each time.
